Measured values: ChEMBL document CHEMBL1201862, “PubChem BioAssay data set” (2004)
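In this assay, cells in 96-well plates receive the compound at five concentrations for 48 hours. Endpoints are linearly interpolated between the surrounding concentrations. Here, GI50 denotes the concentration required for 50% inhibition of growth.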 Calls of active or inactive are those of the source. Cut-off read from the data, not from the text of the source: active = GI50 up to about 1.1 µM and inactive = higher.

What was measured:
Test in all cases: DTP human tumour cell line panel, 48 h
BT-549 = system: BT-549
HCT-15 = system: HCT-15
HOP-62 = system: HOP-62
HT-29 = system: HT-29
LOX IMVI = system: LOX IMVI
M19-MEL = system: M19-MEL
MDA-N = system: MDA-N
NCI-H226 = system: NCI-H226
NCI-H23 = system: NCI-H23
NCI-H522 = system: NCI-H522
OVCAR-4 = system: OVCAR-4
SF-295 = system: SF-295
SF-539 = system: SF-539
SK-MEL-28 = system: SK-MEL-28
SK-OV-3 = system: SK-OV-3
SNB-19 = system: SNB-19
SR = system: SR
SW-620 = system: SW-620
U-251 = system: U-251
UO-31 = system: UO-31

## Cc1ccccc1Nc1nc2c(s1)C(=O)c1ccccc1C2=O
BT-549
  GI50: 2.46 µM (inactive)
HCT-15
  GI50: 3.78 µM
HOP-62
  GI50: 16.4 µM (inactive)
HT-29
  GI50: 19.1 µM (inactive)
LOX IMVI
  GI50: 2.26 µM (inactive)
M19-MEL
  GI50: 1.95 µM (inactive)
MDA-N
  GI50: 1.95 µM (inactive)
NCI-H226
  GI50: 14.4 µM (inactive)
NCI-H23
  GI50: 3.43 µM (inactive)
NCI-H522
  GI50: 2.86 µM (inactive)
OVCAR-4
  GI50: 2.02 µM (inactive)
SF-295
  GI50: 18 µM (inactive)
SF-539
  GI50: 5.73 µM (inactive)
SK-MEL-28
  GI50: 9.86 µM (inactive)
SK-OV-3
  GI50: 21.8 µM (inactive)
SNB-19
  GI50: 7.21 µM (inactive)
SR
  GI50: 3.27 µM (inactive)
SW-620
  GI50: 2.49 µM (inactive)
U-251
  GI50: 4.09 µM (inactive)
UO-31
  GI50: 5.07 µM (inactive)

## CCCCNC(=O)C1C2CCC(O2)C1C(=O)O (stereo not given)
HCT-15
  GI50: 23.7 µM
HOP-62
  GI50: 34.7 µM (inactive)
HT-29
  GI50: 23.1 µM (inactive)
LOX IMVI
  GI50: 16.5 µM (inactive)
M19-MEL
  GI50: 19.3 µM (inactive)
NCI-H226
  GI50: 19 µM (inactive)
NCI-H23
  GI50: 29.4 µM (inactive)
NCI-H522
  GI50: 18.9 µM (inactive)
OVCAR-4
  GI50: 29.6 µM (inactive)
SF-295
  GI50: 23.1 µM (inactive)
SF-539
  GI50: 21 µM (inactive)
SK-MEL-28
  GI50: 28 µM (inactive)
SK-OV-3
  GI50: 23.1 µM (inactive)
SNB-19
  GI50: 23.7 µM (inactive)
SR
  GI50: 18.8 µM (inactive)
SW-620
  GI50: 1.71 µM (inactive)
U-251
  GI50: 13.6 µM (inactive)
UO-31
  GI50: 64.6 µM (inactive)

## Cc1cc2nc3ccc(N(C)C)cc3[s+]c2cc1N [TOLONIUM CHLORIDE]
BT-549
  GI50: 11.7 µM (inactive)
HCT-15
  GI50: 2.99 µM
HOP-62
  GI50: 8.97 µM (inactive)
HT-29
  GI50: 7.93 µM (inactive)
LOX IMVI
  GI50: 1.96 µM (inactive)
M19-MEL
  GI50: 0.184 µM (active)
MDA-N
  GI50: 1.09 µM (active)
NCI-H226
  GI50: 8.22 µM (inactive)
NCI-H23
  GI50: 2.21 µM (inactive)
NCI-H522
  GI50: 2.62 µM (inactive)
OVCAR-4
  GI50: 3.35 µM (inactive)
SF-295
  GI50: 3.62 µM (inactive)
SF-539
  GI50: 2.63 µM (inactive)
SK-MEL-28
  GI50: 13.6 µM (inactive)
SK-OV-3
  GI50: 9.71 µM (inactive)
SNB-19
  GI50: 2.69 µM (inactive)
SR
  GI50: 3.67 µM (inactive)
SW-620
  GI50: 2.86 µM (inactive)
U-251
  GI50: 3.17 µM (inactive)
UO-31
  GI50: 11 µM (inactive)

## O=C(Cc1ccccc1)Oc1ccc2c(-c3ccccc3)c(C(=O)Nc3ccc(Cl)cc3)c(=O)oc2c1
HCT-15
  GI50: > 100 µM
HOP-62
  GI50: > 100 µM (inactive)
HT-29
  GI50: > 100 µM (inactive)
LOX IMVI
  GI50: > 100 µM (inactive)
M19-MEL
  GI50: > 100 µM (inactive)
NCI-H226
  GI50: > 100 µM (inactive)
NCI-H23
  GI50: > 100 µM (inactive)
NCI-H522
  GI50: > 100 µM (inactive)
OVCAR-4
  GI50: > 100 µM (inactive)
SF-295
  GI50: > 100 µM (inactive)
SF-539
  GI50: > 100 µM (inactive)
SK-MEL-28
  GI50: > 100 µM (inactive)
SK-OV-3
  GI50: > 100 µM (inactive)
SNB-19
  GI50: > 100 µM (inactive)
SR
  GI50: > 100 µM (inactive)
SW-620
  GI50: > 100 µM (inactive)
U-251
  GI50: > 100 µM (inactive)
UO-31
  GI50: > 100 µM (inactive)

## O=C1Nc2ccc(Br)cc2/C1=N/Nc1ccc([N+](=O)[O-])cc1
HCT-15
  GI50: 27.2 µM
HOP-62
  GI50: 18.9 µM (inactive)
HT-29
  GI50: 57.9 µM (inactive)
LOX IMVI
  GI50: 21 µM (inactive)
M19-MEL
  GI50: 17.1 µM (inactive)
NCI-H226
  GI50: 18 µM (inactive)
NCI-H23
  GI50: 22 µM (inactive)
NCI-H522
  GI50: 31.3 µM (inactive)
OVCAR-4
  GI50: 17.3 µM (inactive)
SF-295
  GI50: 11.6 µM (inactive)
SF-539
  GI50: 14.2 µM (inactive)
SK-MEL-28
  GI50: 16.8 µM (inactive)
SK-OV-3
  GI50: 19.5 µM (inactive)
SNB-19
  GI50: 19.3 µM (inactive)
SR
  GI50: 22.8 µM (inactive)
SW-620
  GI50: 26.4 µM (inactive)
U-251
  GI50: 18.7 µM (inactive)
UO-31
  GI50: 30.1 µM (inactive)

## O=C(Cc1ccccc1)C(c1ccccc1)S(=O)(=O)c1ccccc1 (stereo not given)
HCT-15
  GI50: 83.6 µM
HOP-62
  GI50: > 100 µM (inactive)
HT-29
  GI50: > 100 µM (inactive)
LOX IMVI
  GI50: > 100 µM (inactive)
M19-MEL
  GI50: > 100 µM (inactive)
NCI-H226
  GI50: > 100 µM (inactive)
NCI-H23
  GI50: 77.4 µM (inactive)
NCI-H522
  GI50: 88.7 µM (inactive)
OVCAR-4
  GI50: 73.3 µM (inactive)
SF-295
  GI50: > 100 µM (inactive)
SF-539
  GI50: > 100 µM (inactive)
SK-MEL-28
  GI50: > 100 µM (inactive)
SK-OV-3
  GI50: > 100 µM (inactive)
SNB-19
  GI50: > 100 µM (inactive)
SR
  GI50: 69.3 µM (inactive)
SW-620
  GI50: > 100 µM (inactive)
U-251
  GI50: > 100 µM (inactive)
UO-31
  GI50: 41.2 µM (inactive)

## COc1ccc2nc(C)cc(NCCCCCCCCCNc3cc(C)nc4ccc(OC)cc34)c2c1
BT-549
  GI50: 8.95 µM (inactive)
HCT-15
  GI50: 2.3 µM
HOP-62
  GI50: 2.26 µM (inactive)
HT-29
  GI50: 0.55 µM (active)
LOX IMVI
  GI50: 0.714 µM (active)
M19-MEL
  GI50: 14.6 µM (inactive)
MDA-N
  GI50: 1.46 µM (inactive)
NCI-H226
  GI50: 6.18 µM (inactive)
NCI-H23
  GI50: 1.73 µM (inactive)
NCI-H522
  GI50: 0.834 µM (active)
OVCAR-4
  GI50: 2.19 µM (inactive)
SF-295
  GI50: 1.11 µM (active)
SF-539
  GI50: 1.27 µM (inactive)
SK-MEL-28
  GI50: 15 µM (inactive)
SK-OV-3
  GI50: 8.79 µM (inactive)
SNB-19
  GI50: 2.67 µM (inactive)
SR
  GI50: 0.486 µM (active)
SW-620
  GI50: 0.957 µM (active)
U-251
  GI50: 2.07 µM (inactive)
UO-31
  GI50: 13.6 µM (inactive)

## Cc1cccc(C(C)C)c1NC(=O)CC1C(=O)Nc2ccccc2S1(=O)=O (stereo not given)
HCT-15
  GI50: 5.11 µM
HOP-62
  GI50: 54.6 µM (inactive)
HT-29
  GI50: 12.6 µM (inactive)
LOX IMVI
  GI50: 22.2 µM (inactive)
M19-MEL
  GI50: 18.6 µM (inactive)
NCI-H226
  GI50: 18.7 µM (inactive)
NCI-H23
  GI50: 9.06 µM (inactive)
NCI-H522
  GI50: 7.01 µM (inactive)
OVCAR-4
  GI50: 12.2 µM (inactive)
SF-295
  GI50: 18.2 µM (inactive)
SF-539
  GI50: 5.77 µM (inactive)
SK-MEL-28
  GI50: 17.7 µM (inactive)
SK-OV-3
  GI50: > 100 µM (inactive)
SNB-19
  GI50: 29.2 µM (inactive)
SR
  GI50: 1.48 µM (inactive)
SW-620
  GI50: 7.03 µM (inactive)
U-251
  GI50: 24.2 µM (inactive)
UO-31
  GI50: 13.5 µM (inactive)
